Measurements: patent US20250368633A1, “AZEPINE FUSED RING COMPOUND AS RIPK1 INHIBITOR AND USE THEREOF” (ARTIVILA BIOPHARMA, priority 2022, published 2025)

Assays:
RIPK1 kinase = biological target: T1, RIPK1 kinase (Homo sapiens, UniProt Q13546); assay: In vitro RIPK1 kinase activity assay (ADP-Glo), inhibition by compounds at 1 μM; type: biochemical; conditions: compound 1 μM; ATP 10 μM; MBP substrate 100 μg/mL; read-out: RIPK1 kinase activity inhibition rate range
T1 construct: purchased Promega VA7593
T1 sequence (Q13546 1-671): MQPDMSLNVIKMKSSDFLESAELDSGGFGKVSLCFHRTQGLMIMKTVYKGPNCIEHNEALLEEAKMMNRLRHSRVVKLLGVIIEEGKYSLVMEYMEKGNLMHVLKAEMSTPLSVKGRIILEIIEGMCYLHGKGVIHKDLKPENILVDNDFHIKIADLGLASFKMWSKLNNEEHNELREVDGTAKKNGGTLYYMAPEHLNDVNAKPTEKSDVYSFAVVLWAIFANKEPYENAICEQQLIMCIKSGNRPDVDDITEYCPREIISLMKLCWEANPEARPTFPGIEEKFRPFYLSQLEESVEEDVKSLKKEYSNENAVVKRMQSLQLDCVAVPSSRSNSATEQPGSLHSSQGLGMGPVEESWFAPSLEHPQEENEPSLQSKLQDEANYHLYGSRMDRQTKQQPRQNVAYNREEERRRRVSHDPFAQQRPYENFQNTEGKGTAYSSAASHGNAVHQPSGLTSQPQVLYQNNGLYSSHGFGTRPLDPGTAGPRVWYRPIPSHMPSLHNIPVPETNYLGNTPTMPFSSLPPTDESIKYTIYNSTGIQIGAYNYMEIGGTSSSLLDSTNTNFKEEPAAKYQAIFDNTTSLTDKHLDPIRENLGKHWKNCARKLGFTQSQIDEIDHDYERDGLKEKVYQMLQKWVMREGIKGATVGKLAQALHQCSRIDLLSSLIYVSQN
Protocol: RIPK1 kinase activity was assayed using the ADP-Glo assay and RIPK1 kinase reaction system (Promega, catalog number: VA7593). The RIPK1 kinase activity assay was performed according to the Promega kit manual.
The experimental method was briefly described as below. The concentration of RIPK1 kinase in the RIPK1 kinase reaction system was determined by kinase titration and S/B10. Compounds were diluted with 1× kinase buffer D (1% DMSO), and 1 μL of 100 μM compound DMSO stock solution was added to 19 μL 1× kinase buffer D. RIPK1 kinase was diluted with 1× kinase buffer D. 2.5×ATP/substrate was diluted with 1× kinase buffer D. The final concentration of ATP in the kinase reaction system was 10 μM, and the final concentration of MBP substrate was 100 μg/mL. 1 μL of diluted compound and 2 μL of diluted RIPK1 kinase were mixed, incubated at room temperature for 15 minutes, 2 μL of 2.5×ATP/substrate was added, mixed, and incubated at room temperature for 1 hour. 5 μL of ADP-Glo reagent was added to each well and incubated at room temperature for 1 hour. 10 μL of ADP detection reagent was added to each well and incubated at room temperature for another 0.5-1 hour. The chemiluminescent signal was read by a microplate reader and the inhibition rate of kinase activity was calculated.

U937 cells [1] = assay: EC50 of necroptosis inhibition in U937 cells (TSZ-induced, CellTiter-Glo); type: cell-based; conditions: Homo sapiens, U-937; TSZ (hTNF-α, SM-164, Z-VAD-FMK) 20 hours; 10 concentration points; read-out: EC50 intervals of necroptosis inhibition in U937 cells
Protocol: (§1) The biological activity of RIPK1 inhibitors was further evaluated in the inhibition of necroptosis in U937 cells. U937 cell line was purchased from Huatuo Biotechnology and stored in liquid nitrogen. U937 cells were revived before the experiment and cultured in RPMI-1640 medium (supplemented with 10% fetal bovine serum, 100 U/mL penicillin and 100 μg/mL streptomycin) at 37° C., 5% CO2. The activity was further evaluated by the cellular ATP level detected by the Promega CellTiter-Glo 2.0 Assay cell viability assay kit (Catalog No.: G9242).
The experimental method was briefly described as below. U937 cells in the logarithmic growth phase were collected by centrifugation. Cells were diluted to the cell density of 5×10^5 cells/mL with RPMI 1640 medium (supplemented with 10% fetal bovine serum, 100 U/mL penicillin and 100 μg/mL streptomycin). Cell suspension was added to a white sterile 384-well cell culture plate at 15 μL/well. The test compound was dissolved in DMSO to prepare a 10 mM stock solution. The compound was serially diluted with culture medium at a ratio of 1:3, for a total of 10 concentration points. A control with the same DMSO volume was set, with two replicates for each concentration. The diluted compound was added to the 384-well cell culture plate containing cells at 2.5 μL/well and incubated at 37° C., 5% CO2 for 15 minutes. Z-VAD-FMK (Biyuntian, catalog number: C1202-5 mg) was dissolved in DMSO to prepare a 20 mM stock solution. SM-164 (Biyuntian, catalog number: SC0114-10 mM) was dissolved in DMSO to prepare a 10 mM stock solution and diluted to 0.1 mM. hTNF-α (Sino Biological Inc., catalog number: 10602-HNAE) was dissolved in sterile water to 10 μg/mL. RPMI 1640 medium (supplemented with 10% fetal bovine serum, 100 U/mL penicillin and 100 μg/mL streptomycin) was used to prepare the TSZ mixture, containing 133.3 μM Z-VAD-FMK, 33.3 ng/ml hTNF-α and 0.3 μM SM-164. After 15 minutes' coculture of compounds and cells, 7.5 μL of TSZ mixture was added to each well, mixed evenly, and cultured at 37° C., 5% CO2 for 20 hours. After 20 hours, the culture plate was removed and placed at room temperature for 30 minutes. Then, 10 μL of CellTiter-Glo reagent pre-equilibrated at room temperature was added to each well and incubated. After 10 minutes' incubation at room temperature in the dark, the chemiluminescence were measured using a microplate reader. The inhibition rate was calculated as Inh %=(1−(no TSZ-TSZ & compound)/(no TSZ-TSZ))×100. The EC50 was obtained by fitting the nonlinear regression curve log [inhibitor] vs. response−variable slope (four parameters) in GraphPad Prism.

U937 cells [2] = assay: Inhibition rate of compound (1 μM) on necroptosis of U937 cells (TSZ-induced, CellTiter-Glo); type: cell-based; conditions: TSZ (hTNF-α, SM-164, Z-VAD-FMK) 20 hours
Protocol: as §1
The experimental method was briefly described as below. U937 cells in the logarithmic growth phase were collected by centrifugation. Cells were diluted at the density of 5×10^5 cells/mL with RPMI 1640 medium (supplemented with 10% fetal bovine serum, 100 U/mL penicillin and 100 μg/mL streptomycin). The cell suspension was added to a white sterile 384-well cell culture plate at 15 μL/well. The test compound was dissolved in DMSO to prepare a 10 mM stock solution and diluted to 10 μM with culture medium. At the same time, a control with the same DMSO volume was set up. Two replicates were added for each concentration. The diluted compound was added to the 384-well cell culture plate containing cells at 2.5 µL/well and incubated at 37° C., 5% CO2 for 15 minutes. Z-VAD-FMK (Biyuntian, catalog number: C1202-5 mg) was dissolved in DMSO to prepare a 20 mM stock solution. SM-164 (Biyuntian, catalog number: SC0114-10 mM) was dissolved in DMSO to prepare a 10 mM stock solution and diluted to 0.1 mM. hTNF-α (Sino Biological Inc., catalog number: 10602-HNAE) was dissolved in sterile water to 10 μg/mL. RPMI 1640 medium (supplemented with 10% fetal bovine serum, 100 U/mL penicillin and 100 μg/mL streptomycin) was used to prepare the TSZ mixture, containing 133.3 μM Z-VAD-FMK, 33.3 ng/ml hTNF-α and 0.3 μM SM-164. After 15 minutes' coculture of compounds and cells, 7.5 μL of TSZ mixture was added to each well, mixed evenly, and cultured at 37° C., 5% CO2 for 20 hours. After 20 hours, the culture plate was removed and placed at room temperature for 30 minutes. 10 μL of CellTiter-Glo reagent pre-equilibrated at room temperature was added to each well and incubated for 10 minutes from light. The chemiluminescence was read by a microplate reader. The inhibition rate was calculated as Inh %=(1−(no TSZ-TSZ & compound)/(no TSZ-TSZ))×100.

SMILES	inhibition at 1 µM (RIPK1 kinase) [%]	EC50 (U937 cells [1]) [nM]	Inhibition rate range of compounds (1 μM) on U937 cell necroptosis (U937 cells [2])
C[C@@H](NC(=O)C(=O)N[C@H]1COc2ccc(C#CCN3CCN(CCOCCOCCOCCC(=O)Nc4cccc5c4CN(C4CCC(=O)NC4=O)C5=O)CC3)cc2N(C)C1=O)c1ccccc1 (mixture of isomers) [Example 164, N^1-((3S)-7-(3-(4-(2-(2-(2-(3-((2-(2,6-dioxopiperidin-3-yl)-1-oxoisoindolin-4-yl)amino)-3-oxopropoxy)ethoxy)ethoxy)ethyl)piperazin-1-yl)prop-1-yn-1-yl)-5-methyl-4-oxo-2,3,4,5-tetrahydrobenzo[b][1,4]oxazepin-3-yl)-N^2-((R)-1-phenylethyl)oxalamide]	≥ 75	100 to 500	A (A: ≥90%)
CN1C(=O)[C@@H](NC(=O)C(=O)NCCc2ccccc2)COc2ccc(Br)cc21 [Example 1, (S)—N^1-(7-bromo-5-methyl-4-oxo-2,3,4,5-tetrahydrobenzo[b][1,4]oxazepin-3-yl)-N^2-phenethyloxalamide]	50 to 74	100 to 500	A (A: ≥90%)
CN1C(=O)[C@@H](NC(=O)C(=O)NCCc2ccccc2)COc2ccc(C#CC3CC3)cc21 [Example 2, (S)—N^1-(7-(cyclopropylethynyl)-5-methyl-4-oxo-2,3,4,5-tetrahydrobenzo[b][1,4]oxazepin-3-yl)-N^2-phenethyloxalamide]	≥ 75	< 100	A (A: ≥90%)
CN1C(=O)[C@@H](NC(=O)C(=O)NCCc2ccccc2)COc2cc(Br)ccc21 [Example 3, (S)—N^1-(8-bromo-5-methyl-4-oxo-2,3,4,5-tetrahydrobenzo[b][1,4]oxazepin-3-yl)-N^2-phenethyloxalamide]	≥ 75	500 to 2000	A (A: ≥90%)
CN1C(=O)[C@@H](NC(=O)C(=O)NCCc2ccccc2)COc2cc(O)ccc21 [Example 5, (S)—N^1-(8-hydroxy-5-methyl-4-oxo-2,3,4,5-tetrahydrobenzo[b][1,4]oxazepin-3-yl)-N^2-phenethyloxalamide]	≥ 75	100 to 500	A (A: ≥90%)
CN1C(=O)[C@@H](NC(=O)C(=O)NCCc2ccccc2)COc2ccc(O)cc21 [Example 6, (S)—N^1-(7-hydroxy-5-methyl-4-oxo-2,3,4,5-tetrahydrobenzo[b][1,4]oxazepin-3-yl)-N^2-phenethyloxalamide]	50 to 74	100 to 500	A (A: ≥90%)
COc1ccc2c(c1)N(C)C(=O)[C@@H](NC(=O)C(=O)NCCc1ccccc1)CO2 [Example 8, (S)—N^1-(7-methoxy-5-methyl-4-oxo-2,3,4,5-tetrahydrobenzo[b][1,4]oxazepin-3-yl)-N^2-phenethyloxalamide]	≥ 75	100 to 500	A (A: ≥90%)
C=CCOc1ccc2c(c1)N(C)C(=O)[C@@H](NC(=O)C(=O)NCCc1ccccc1)CO2 [Example 9, (S)—N^1-(7-(allyloxy)-5-methyl-4-oxo-2,3,4,5-tetrahydrobenzo[b][1,4]oxazepin-3-yl)-N^2-phenethyl oxalamide]	≥ 75	100 to 500	A (A: ≥90%)
CN1C(=O)[C@@H](NC(=O)C(=O)NCCc2ccccc2F)COc2ccccc21 [Example 99, (S)—N^1-(2-fluorophenethyl)-N^2-(5-methyl-4-oxo-2,3,4,5-tetrahydrobenzo[b][1,4]oxazepin-3-yl)oxalamide]	50 to 74	–	B (B: 50-89%)
CN1C(=O)[C@@H](NC(=O)C(=O)NCCOc2ccccc2)COc2ccccc21 [Example 103, (S)—N^1-(5-methyl-4-oxo-2,3,4,5-tetrahydrobenzo[b][1,4]oxazepin-3-yl)-N^2-(2-phenoxyethyl)oxalamide]	25 to 49	500 to 2000	–
